Values after ≈ are worked out from the molar mass of the structure shown.
Tests used:
P. granulosum PRP-019 = experiment: Disc diffusion assay (DDA), also supplemented; format: cell-based; settings: Table 12 series, 200 μg per disc
Procedure: (§6) The propionibacteria were cultured and maintained on Wilkins-Chalgren Anaerobe Medium (agar and broth) at pH 6.0; all cultures were incubated anaerobically at 37° C. for 72 hours.
(§7) A sterile paper disc was impregnated with a sample of the test compound in a suitable solvent and 30 minutes allowed for the solvents to evaporate (where possible). The disc was then placed on an agar plate onto which the test micro-organism had been inoculated. The plate was then incubated under the conditions described above, following which it was examined visually for signs of bacterial growth. […] The diameter of this zone of “inhibition” was measured using a ProtoCOL™ automated zone sizer (Synbiosis, Cambridge, UK).
(§8) For assays using Propionibacterium spp. strains the supplements used in the examples below were lipid (either Tween™ 80 or triolein, both at 1% v/v) and sodium chloride (100 mM).

S. aureus ATCC 29213 [1] = experiment: Minimum inhibitory concentration (MIC) assay; format: cell-based, Staphylococcus aureus; settings: S. aureus ATCC 29213
Excerpt: (§1) (a) Minimum Inhibitory Concentration (MIC) Assay
(§2) The culture media were as described above.
(§3) The assays included both negative (culture medium with no micro-organisms) and positive (culture medium plus diluting solvent plus micro-organism) controls.

P. granulosum PRP-021 = experiment: Disc diffusion assay (DDA), also supplemented; format: cell-based; settings: Table 12 series, 200 μg per disc
Procedure: as §6, §7, §8

P. acnes PRP-002 = experiment: Disc diffusion assay (DDA), also supplemented; format: cell-based, Propionibacterium acnes; settings: Table 12 series, 200 μg per disc
Procedure: as §6, §7, §8

P. acnes PRP-053 = experiment: Disc diffusion assay (DDA), also supplemented; format: cell-based, Propionibacterium acnes; settings: Table 12 series, 200 μg per disc
Procedure: as §6, §7, §8

P. acnes PRP-007 = experiment: Disc diffusion assay (DDA), also supplemented; format: cell-based, Propionibacterium acnes; settings: Table 12 series, 200 μg per disc
Procedure: as §6, §7, §8

P. acnes PRP-046 = experiment: Disc diffusion assay (DDA), also supplemented; format: cell-based, Propionibacterium acnes; settings: Table 12 series, 200 μg per disc
P. granulosum PRP-005 = experiment: Disc diffusion assay (DDA), also supplemented; format: cell-based; settings: Table 12 series, 200 μg per disc
Procedure: as §6, §7, §8

P. acnes PRP-068 = experiment: Disc diffusion assay (DDA), also supplemented; format: cell-based, Propionibacterium acnes; settings: Table 12 series, 200 μg per disc
Procedure: as §6, §7, §8

P. acnes NCTC 737 [2] = experiment: Disc diffusion assay (DDA), also supplemented; settings: single compound, 200 μg per disc;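 also: paper disc carrying compound placed on inoculated Wilkins-Chalgren Anaerobe agar pH 6.0, with lipid or NaCl supplement where listed, anaerobic 37 °C for 72 h, inhibition zone diameter read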
P. acnes PRP-017 = experiment: Disc diffusion assay (DDA), also supplemented; format: cell-based, Propionibacterium acnes; settings: Table 12 series, 200 μg per disc
P. acnes PRP-010 = experiment: Disc diffusion assay (DDA), also supplemented; format: cell-based, Propionibacterium acnes; settings: Table 12 series, 200 μg per disc
Procedure: as §6, §7, §8

P. acnes PRP-023 = experiment: Disc diffusion assay (DDA), also supplemented; format: cell-based, Propionibacterium acnes; settings: Table 12 series, 200 μg per disc
Procedure: as §6, §7, §8

P. granulosum PRP-055 = experiment: Disc diffusion assay (DDA), also supplemented; format: cell-based; settings: Table 12 series, 200 μg per disc
Procedure: as §6, §7, §8

P. acnes PRP-008 = experiment: Disc diffusion assay (DDA), also supplemented; format: cell-based, Propionibacterium acnes; settings: Table 12 series, 200 μg per disc
Procedure: as §6, §7, §8

P. acnes PRP-004 = experiment: Disc diffusion assay (DDA), also supplemented; format: cell-based, Propionibacterium acnes; settings: Table 12 series, 200 μg per disc
Procedure: as §6, §7, §8

P. acnes PRP-102 = experiment: Disc diffusion assay (DDA), also supplemented; format: cell-based, Propionibacterium acnes; settings: Table 12 series, 200 μg per disc
Procedure: as §6, §7, §8

P. acnes NCTC 737 [3] = experiment: Minimum inhibitory concentration (MIC) assay; format: cell-based, Propionibacterium acnes; settings: P. acnes NCTC 737
Excerpt: as §1, §2, §3

P. granulosum PRP-006 = experiment: Disc diffusion assay (DDA), also supplemented; format: cell-based; settings: Table 12 series, 200 μg per disc
Procedure: as §6, §7, §8

P. acnes PRP-101 = experiment: Disc diffusion assay (DDA), also supplemented; format: cell-based, Propionibacterium acnes; settings: Table 12 series, 200 μg per disc
Procedure: as §6, §7, §8

S. aureus ATCC 29213 [4] = experiment: Minimum bactericidal concentration (MBC) assay; format: cell-based, Staphylococcus aureus; settings: Staphylococcus aureus, ATCC29213; S. aureus ATCC 29213; duplicate; read-out: MBC
Procedure: (§4) (b) Minimum Bactericidal Concentration (MBC) Assay
(§5) Following incubation they were examined visually for bacterial growth.

P. acnes NCTC 737 [5] = experiment: Minimum bactericidal concentration (MBC) assay; format: cell-based, Propionibacterium acnes; settings: Cutibacterium acnes, NCTC737; P. acnes NCTC 737; duplicate; read-out: MBC
Procedure: as §4, §5

P. acnes PRP-003 = experiment: Disc diffusion assay (DDA), also supplemented; format: cell-based, Propionibacterium acnes; settings: Table 12 series, 200 μg per disc
Procedure: as §6, §7, §8

P. acnes PRP-039 = experiment: Disc diffusion assay (DDA), also supplemented; format: cell-based, Propionibacterium acnes; settings: Table 12 series, 200 μg per disc
P. granulosum PRP-044 = experiment: Disc diffusion assay (DDA), also supplemented; format: cell-based; settings: Table 12 series, 200 μg per disc
Procedure: as §6, §7, §8

P. granulosum PRP-043 = experiment: Disc diffusion assay (DDA), also supplemented; format: cell-based; settings: Table 12 series, 200 μg per disc
Procedure: as §6, §7, §8

P. acnes PRP-026 = experiment: Disc diffusion assay (DDA), also supplemented; format: cell-based, Propionibacterium acnes; settings: Table 12 series, 200 μg per disc
Procedure: as §6, §7, §8

S. aureus ATCC 29213 [6] = experiment: Disc diffusion assay (DDA), also supplemented; settings: single compound, 200 μg per disc
P. acnes PRP-059 = experiment: Disc diffusion assay (DDA), also supplemented; format: cell-based, Propionibacterium acnes; settings: Table 12 series, 200 μg per disc
Procedure: as §6, §7, §8

P. granulosum NCTC 11865 = experiment: Disc diffusion assay (DDA), also supplemented; format: cell-based; settings: Table 12 series, 200 μg per disc
Procedure: as §6, §7, §8

[7] = system: panel of different propionibacterium strains; experiment: MIC by agar dilution and (S)DDA, whole panel; format: cell-based, Propionibacterium spp; settings: compound alone; also under supplemented conditions
Procedure: For (S)DDA experiments 200 μg of each test compound was added per disc. […] MIC experiments were performed in duplicate, DDA experiments as single replicates only. SDDA experiments were conducted in triplicate.
The activity of the salt (MIC by agar dilution and DDA) was also determined against a panel of different propionibacterium strains. Supplemented DDA experiments were also carried out. […] DMSO was used as the diluting solvent. MIC experiments were performed in duplicate and DDA experiments as single replicates only.

[8] = system: panel of different staphylococcal strains; settings: compound alone; also under supplemented conditions
Procedure: The activity of the salt was also determined against a panel of different staphylococcal strains, including some with known antibiotic resistance. MIC, MBC and DDA assays were carried out as described above for each of the strains, including determining the effect of the presence of salt and serum.
For DDA experiments 200 μg of the test compound was added per disc. DMSO was used as the diluting solvent. All experiments were performed in triplicate.

[9] = system: Staphylococcus haemolyticus ATCC 29970; settings: triplicate
Procedure: The staphylococci were cultured and maintained on Mueller-Hinton Medium (agar and broth) at pH 7.2; cultures were incubated aerobically at 37° C. for 19-20 hours.
This is a standard international method for quantitatively assessing the antimicrobial activity of a compound in a liquid medium. The method used a sterile 96-well microtitre plate, capable of holding about 200 μl of liquid per well. […] The culture media were as described above.
The wells were inoculated with a liquid suspension of freshly grown micro-organism and incubated under the conditions described above. After incubation, the microtitre plate was examined visually (with the aid of a light box) for cloudiness in each well, which would indicate microbial growth. The MIC value was recorded as the lowest concentration of test compound required to inhibit microbial growth, ie, the lowest concentration for which the liquid in the well remained clear.

[10] = zone of inhibition diameter, unsupplemented

## CC(C)(C)c1cc(O)ccc1O [TBHQ, t-butylhydroquinone]
P. granulosum PRP-019
  DDA: 0.00 mm
S. aureus ATCC 29213 [1]
  MIC/MBC ratio: 0.5
P. granulosum PRP-021
  DDA: 8.57 mm
P. acnes PRP-002
  DDA: 10.56 mm
P. acnes PRP-053
  DDA: 9.93 mm
P. acnes PRP-007
  DDA: 8.78 mm
P. acnes PRP-046
  DDA: 14.22 mm
P. granulosum PRP-005
  DDA: 15.05 mm
P. acnes PRP-068
  DDA: 12.55 mm
P. acnes NCTC 737 [2]; salt and lipid (1% (v/v) Tween 80) supplements
  SL (S)DDA: 0.0 mm
P. acnes NCTC 737 [2]; [10]
  (S)DDA: 12.20 (±1.13) mm
P. acnes PRP-017
  DDA: 9.93 mm
P. acnes PRP-010
  DDA: 8.68 mm
P. acnes PRP-023
  DDA: 11.92 mm
P. granulosum PRP-055
  DDA: 10.04 mm
P. acnes PRP-008
  DDA: 13.90 mm
P. acnes PRP-004
  DDA: 13.80 mm
P. acnes PRP-102
  DDA: 9.10 mm
P. acnes NCTC 737 [3]; Cutibacterium acnes, NCTC737, liquid medium, duplicate, read-out: MIC
  MIC: 7.8 µg/mL (≈ 46.9 µM)
P. acnes NCTC 737 [3]
  MIC/MBC ratio: 1
P. granulosum PRP-006
  DDA: 9.93 mm
P. acnes PRP-101
  DDA: 14.01 mm
S. aureus ATCC 29213 [4]
  MBC: 7.8 µg/mL (≈ 46.9 µM)
P. acnes NCTC 737 [5]
  MBC: 7.8 µg/mL (≈ 46.9 µM)
P. acnes PRP-003
  DDA: 18.61 mm
P. acnes PRP-039
  DDA: 17.04 mm
P. granulosum PRP-044
  DDA: 0.00 mm
P. granulosum PRP-043
  DDA: 10.77 mm
P. acnes PRP-026
  DDA: 11.29 mm
S. aureus ATCC 29213 [6]; salt and serum supplements
  SS (S)DDA: 43.68 (±1.02) mm
S. aureus ATCC 29213 [6]; [10]
  (S)DDA: 40.42 (±0.89) mm
P. acnes PRP-059
  DDA: 10.87 mm
P. granulosum NCTC 11865
  DDA: 10.45 mm

## Oc1cccc2cccnc12.[Cu+2] [8-hydroxyquinoline copper (II) salt]
[7]
  activity against propionibacterium strains tested (in words): high activity
[8]
  activity against staphylococcal strains (in words): high activity
[9]
  Cu-8HQ MIC: 7.8 µg/mL

— patent publication US20090246292A1, “ANTIMICROBIAL FORMULATIONS COMPRISING A QUINONE AND A COPPER SALT” (priority 2006, published 2009)
